Results as given in patent US12643871B2, “Aryl formamide compound containing chiral sulfur oxide or salt thereof, preparation method, herbicidal composition and use thereof” (Qingdao Kingagroot Chemical Compound Co., Ltd., priority 2019, dated 2026).

Experiments:
Rice = experiment: Transplanted rice safety evaluation; assay type: in vivo, rice (japonica rice/Indica rice); settings: 60 g/ha; transplanted 3 leaf stage rice, 21 days after treatment
Excerpt: (§1) The activity level criteria for harmful plant damage (i.e., growth control rate) are as follows: • Level 5: growth control rate is above 85%; • Level 4: growth control rate is greater than or equal to 60% and less than 85%; • Level 3: growth control rate is greater than or equal to 40% and less than 60%; • Level 2: growth control rate is greater than or equal to 20% and less than 40%; • Level 1: growth control rate is greater than or equal to 5% and less than 20%; • Level 0: growth control rate is less than 5%.
In addition, the rice field soil that loaded into the 1/1,000,000 ha pot was leveled to keep water storage at 3-4 cm depth. The 3 leaf stage rice (japonica rice/Indica rice) was transplanted at 3 cm of transplanting depth the next day. The compound of the present invention was treated by the same way after 5 days of transplantation.
(§2) The fertility condition of Echinochloa crusgali, Scirpus juncoides, Bidens tripartita, Leptochloa chinensis, Sagittaria trifolia and Monochoria vaginalis 14 days after the treatment of the compound of the invention and the fertility condition of rice 21 days after the treatment of the compound of the invention respectively with the naked eye. Evaluate the weed control effect with 0-5 activity standard level. Many compounds show excellent activity and selectivity.

[1] = system: key weeds such as Digitaria sanguinalis, Leptochloa chinensis; experiment: Comparison experiment (post-emergence, Tables 4-7), herbicidal activity on weeds not listed separately; assay type: in vivo; settings: dose of 125, 60, 30, 15 g/ha
How it was run: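 Compounds are applied post-emergence by spray tower to plants at the 2 leaf stage, at rates from 15 to 500 g/ha with a methyl oleate synergist. Control is expressed on fresh weight, counted after 15 days in the greenhouse and averaged across three repetitions.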

Leptochloa chinensis = experiment: Weed control effect evaluation in rice field; assay type: in vivo; settings: 60 g/ha; rice field pot, 14 days after treatment
Excerpt: as §1
(§3) Rice field soil was loaded into a 1/1,000,000 ha pot. The seeds of Echinochloa crusgali, Scirpus juncoides, Bidens tripartita, Sagittaria trifolia, Monochoria vaginalis and Leptochloa chinensis were sowed and gently covered with soil, then left to stand still in greenhouse in the state of 0.5-1 cm of water storage. The tuber of Sagittaria trifolia was planted in the next day or 2 days later. It was kept at 3-4 cm of water storage thereafter. The weeds were treated by dripping the WP or SC water diluents prepared according to the common preparation method of the compounds of the present invention with pipette homogeneously to achieve specified effective amount when Echinochloa crusgali, Scirpus juncoides, Bidens tripartita, Monochoria vaginalis and Leptochloa chinensis reached 0.5 leaf stage and Sagittaria trifolia reached the time point of primary leaf stage.
as §2

Echinochloa crusgali [2] = experiment: Weed control effect evaluation in rice field; assay type: in vivo; settings: 60 g/ha; rice field pot, 14 days after treatment; ALS-inhibitor resistant weed from Heilongjiang
Excerpt: as §1, §3, §2

Monochoria vaginalis = experiment: Weed control effect evaluation in rice field; assay type: in vivo; settings: 60 g/ha; rice field pot, 14 days after treatment; ALS-inhibitor resistant weed from Heilongjiang
Excerpt: as §1, §3, §2

Sagittaria trifolia = experiment: Weed control effect evaluation in rice field; assay type: in vivo; settings: 60 g/ha; rice field pot, 14 days after treatment; ALS-inhibitor resistant weed from Heilongjiang
Excerpt: as §1, §3, §2

Setaria viridis = experiment: Weeding effect in post-emergence stage; assay type: in vivo; settings: 250 g/ha; 2 leaf stage; 15 days after application; fresh weight control rate
How it was run: (§4)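 Two-leaf-stage pot plants, spray-tower application at 500/250/125/60/30/15 g/ha with methyl oleate EC synergist; fresh weight control level (0–5) read at 15 days post-treatment, three replicates averaged.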

Abutilon theophrasti = experiment: Weeding effect in post-emergence stage; assay type: in vivo; settings: 250 g/ha; 2 leaf stage; 15 days after application; fresh weight control rate
How it was run: as §4

Digitaria sanguinalis = experiment: Weeding effect in post-emergence stage; assay type: in vivo; settings: 250 g/ha; 2 leaf stage; 15 days after application; fresh weight control rate
How it was run: as §4

Echinochloa crusgali [3] = experiment: Weeding effect in post-emergence stage; assay type: in vivo; settings: 250 g/ha; 2 leaf stage; 15 days after application; fresh weight control rate
How it was run: as §4

Amaranthus retroflexus = experiment: Weeding effect in post-emergence stage; assay type: in vivo; settings: 250 g/ha; 2 leaf stage; 15 days after application; fresh weight control rate
How it was run: as §4

rice and other crops = experiment: Comparison experiment (post-emergence, Tables 4-7), crop safety; assay type: in vivo; settings: dose of 125, 60, 30, 15 g/ha
How it was run: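 Readout: fresh weight control rate, counted 15 days post-spray and averaged over three replicates. Pot-grown plants (seeds under 0.5-2 cm soil) were treated at the 2 leaf stage, two weeks after sowing, with 15–500 g/ha compound plus methyl oleate synergist at 1.5 liter/ha.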

Row | SMILES | Herbicidal effects of compounds, Rice, 0-5 activity standard level (Rice) | activity to key weeds such as Digitaria sanguinalis, Leptochloa chinensis compared with the corresponding racemate or S configuration [1] | Herbicidal effects of compounds, Leptochloa chinensis, 0-5 activity standard level (Leptochloa chinensis) | Herbicidal effects of compounds, Echinochloa crusgali, 0-5 activity standard level (Echinochloa crusgali [2]) | Herbicidal effects of compounds, Monochoria vaginalis, 0-5 activity standard level (Monochoria vaginalis) | Herbicidal effects of compounds, Sagittaria trifolia, 0-5 activity standard level (Sagittaria trifolia) | weeding effect in post-emergence stage, activity level (growth control rate), Setaria viridis (Setaria viridis) | weeding effect in post-emergence stage, activity level (growth control rate), Abutilon theophrasti (Abutilon theophrasti) | weeding effect in post-emergence stage, activity level (growth control rate), Digitaria sanguinalis (Digitaria sanguinalis) | weeding effect in post-emergence stage, activity level (growth control rate), Echinochloa crusgali (Echinochloa crusgali [3]) | weeding effect in post-emergence stage, activity level (growth control rate), Amaranthus retroflexus (Amaranthus retroflexus) | safety to rice and other crops compared with the corresponding racemate or S configuration (rice and other crops)
1 | CCCC[S@@+]([O-])c1c(C(F)(F)F)ccc(C(=O)Nc2nnc(C)o2)c1F [Compound 4] | 0 (Level 0: growth control rate is less than 5%) | better activity | 5 (Level 5: growth control rate is above 85%) | 5 (Level 5: growth control rate is above 85%) | 5 (Level 5: growth control rate is above 85%) | 5 (Level 5: growth control rate is above 85%) | 5 (Level 5: growth control rate is above 85%) | 5 (Level 5: growth control rate is above 85%) | 5 (Level 5: growth control rate is above 85%) | 5 (Level 5: growth control rate is above 85%) | 5 (Level 5: growth control rate is above 85%) | higher safety
2 | Cc1nnc(NC(=O)c2ccc(C(F)(F)F)c([S@+]([O-])CC(C)C)c2F)o1 [Compound 6] | 0 (Level 0: growth control rate is less than 5%) |  | 5 (Level 5: growth control rate is above 85%) | 5 (Level 5: growth control rate is above 85%) | 5 (Level 5: growth control rate is above 85%) | 5 (Level 5: growth control rate is above 85%) | 5 (Level 5: growth control rate is above 85%) | 5 (Level 5: growth control rate is above 85%) | 5 (Level 5: growth control rate is above 85%) | 5 (Level 5: growth control rate is above 85%) | 5 (Level 5: growth control rate is above 85%) | 
3 | Cc1nnc(NC(=O)c2ccc(C(F)(F)F)c([S@+]([O-])CCCF)c2F)o1 [Compound 26] | 0 (Level 0: growth control rate is less than 5%) | better activity | 5 (Level 5: growth control rate is above 85%) | 5 (Level 5: growth control rate is above 85%) | 5 (Level 5: growth control rate is above 85%) | 5 (Level 5: growth control rate is above 85%) | 5 (Level 5: growth control rate is above 85%) | 5 (Level 5: growth control rate is above 85%) | 5 (Level 5: growth control rate is above 85%) | 5 (Level 5: growth control rate is above 85%) | 5 (Level 5: growth control rate is above 85%) | higher safety
